One assay has as its system AMPK in U2OS cells. Nature of the assay: AMPK activity in anti-α1/-α2 immunoprecipitates from treated U2OS cells. The class given is cell-based, human. From the text: T-Rex U2OS cells carrying a Flp Recombinase Target (FRT) site were generated as described previously and grown in Dulbecco’s Modified Eagle’s Medium (DMEM) supplemented with 10% (v/v) FBS and 1% (v/v) penicillin/streptomycin.
Cells were lysed rapidly in situ on culture plates using ice-cold lysis medium containing phosphatase inhibitors, as described previously.
AMPK assays measured the transfer of radioactivity from labelled ATP to a peptide substrate, which was separated from unreacted ATP by binding to P81 paper. This assay was described previously, except that we used [γ-^33P]ATP rather than [γ-^32P]ATP. The peptide substrate was the AMARA peptide in all experiments other than one, which analyzed allosteric activation by AMP (Figure 2A), when, for technical reasons, the SAMS peptide was used instead. With purified preparations of AMPK, it was assayed in solution, but for assays in cell lysates (Figure 3D and Figure 4D), it was first immunoprecipitated using a mixture of anti-α1 and -α2 antibodies and assayed in resuspended immunoprecipitates. After the initial immunoprecipitation of lysate containing 80 µg of protein, the pellets were washed twice with 1 mL of high salt IP buffer (50 mM Tris-HCL, pH 7.4 at 4 °C, 1 M NaCl, 1 mM EDTA, 1 mM EGTA, 50 mM NaF, 5 mM Na pyrophosphate, 1 mM dithiothreitol, 0.1% (v/v) Triton X-100) and twice with 1 mL of low salt IP buffer (as above but only 150 mM NaCl), followed by a final wash in 1 mL of assay buffer (50 mM Na Hepes, pH7.4, 150 mM NaCl, 1 mM dithiothreitol, 0.02% (v/v) Brij-35). After each wash, the pellet was recovered via centrifugation (16,000× g, 3 min) and then resuspended. The final resuspended pellets from each biological replicate were divided into two aliquots (40 µg lysate protein) to provide technical replicates and assayed as above.

For assay [1], the system named is endogenous AMPK from HEK-293 cells. Nature of the assay: Activation of dephosphorylated immunoprecipitated AMPK by the LKB1 complex. It counts as biochemical, human. The conditions noted are these: increasing concentrations; SBI-0206965 effect reversed above 1 µM. As for the experimental part:
AMPK was immunoprecipitated from HEK-293 cell lysate (2.5 mg protein) using a mixture of anti-α1 and -α2 antibodies. After extensive washing, it was incubated in a shaking incubator at 30 °C for 20 min in Hepes buffer with 50 mM MgCl2 and sufficient PPM1A to yield about 90% inactivation (total volume of 250 µL). The reaction was terminated by adding 1 mL of IP buffer and, after additional washing in the same buffer, aliquots equivalent to 80 µg of lysate protein were incubated in a shaking incubator at 30 °C for 10 min in Hepes buffer with […] and 5 mM MgCl2, with or without a limiting amount of LKB1:STRADα:MO25α complex (0.5 µg) in the presence or absence of 200 µM AMP or the indicated concentration of BAY-3827 or SBI-0206965 (total volume of 50 µL). The reaction was terminated by adding 1 mL of IP buffer and, after additional washing in the same buffer and a final wash into Hepes buffer, AMPK activity was determined using kinase assays as above.

For assay [2], the target named is T1, LKB1 (human LKB1:STRADα:MO25α complex) (Homo sapiens, UniProt Q15831).
T1 construct: made in house
T1 sequence (Q15831 1-433): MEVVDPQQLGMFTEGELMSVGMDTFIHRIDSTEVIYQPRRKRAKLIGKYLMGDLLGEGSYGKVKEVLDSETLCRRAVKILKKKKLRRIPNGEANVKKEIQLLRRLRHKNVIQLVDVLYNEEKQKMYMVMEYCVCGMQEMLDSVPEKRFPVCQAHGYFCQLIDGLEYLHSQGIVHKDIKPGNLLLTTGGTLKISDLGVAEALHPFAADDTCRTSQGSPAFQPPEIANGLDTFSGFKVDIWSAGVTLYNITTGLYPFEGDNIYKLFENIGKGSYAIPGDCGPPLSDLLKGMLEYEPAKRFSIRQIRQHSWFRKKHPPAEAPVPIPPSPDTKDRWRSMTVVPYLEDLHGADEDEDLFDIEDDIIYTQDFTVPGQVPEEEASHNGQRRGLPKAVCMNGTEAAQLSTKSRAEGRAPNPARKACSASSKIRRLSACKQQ
T1 sequence (Q7RTN6 1-431 partner): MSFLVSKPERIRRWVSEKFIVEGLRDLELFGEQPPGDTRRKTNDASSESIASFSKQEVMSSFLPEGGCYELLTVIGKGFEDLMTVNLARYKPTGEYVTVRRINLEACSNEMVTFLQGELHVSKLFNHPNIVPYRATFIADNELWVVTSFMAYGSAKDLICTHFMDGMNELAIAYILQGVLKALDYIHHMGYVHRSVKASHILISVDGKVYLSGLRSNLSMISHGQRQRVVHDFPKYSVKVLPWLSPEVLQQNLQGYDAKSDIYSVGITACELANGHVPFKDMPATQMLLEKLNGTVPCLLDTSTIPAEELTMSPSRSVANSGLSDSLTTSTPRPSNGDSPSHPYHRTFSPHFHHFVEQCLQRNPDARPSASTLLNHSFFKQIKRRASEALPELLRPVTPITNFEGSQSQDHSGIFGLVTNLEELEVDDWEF
T1 sequence (Q9Y376 1-341 partner): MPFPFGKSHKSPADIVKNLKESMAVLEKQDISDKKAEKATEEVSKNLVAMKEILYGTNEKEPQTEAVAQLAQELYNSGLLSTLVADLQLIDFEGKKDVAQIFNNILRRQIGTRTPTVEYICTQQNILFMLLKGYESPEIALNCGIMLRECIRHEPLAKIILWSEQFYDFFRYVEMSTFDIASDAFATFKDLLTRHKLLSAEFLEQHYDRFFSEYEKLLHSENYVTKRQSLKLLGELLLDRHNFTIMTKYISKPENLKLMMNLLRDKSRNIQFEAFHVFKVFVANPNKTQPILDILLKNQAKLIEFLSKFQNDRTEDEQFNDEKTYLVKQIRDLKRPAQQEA
As to the kind of experiment: LKB1 activity using LKBtide peptide. The class given is biochemical. As to conditions: LKBtide substrate. As for the experimental part:
To directly determine LKB1 activity, kinase assays were performed in the presence or absence of the indicated concentration of BAY-3827 or SBI-0206965 as for AMPK, except that LKBtide was used as a peptide substrate. PPM1A activity was determined using p-nitrophenyl phosphate (pNPP) as a substrate. PPM1A (5 µg) was incubated with 50 mM pNPP and 50 mM MgCl2 in Hepes buffer in the presence of a vehicle or the indicated concentration of BAY-3827 or SBI-0206965 for 10 min at 30 °C. The reaction was quenched by the addition of 1 mL of 0.5 M EDTA and the amount of product, p-nitrophenol, determined by measuring absorbance at 405 nm.

As to `CCc1ccccc1C(=O)Nc1n[nH]c2c(C)c(F)c(C3C(C#N)=C(C)N(C)C(C)=C3C#N)cc12` [BAY-3827], the EC50 (as a rule, the concentration at which the effect is half-maximal) in the assay with AMPK in U2OS cells (Homo sapiens, U2OS cells treated with inhibitor and MK-8722, read-out: EC50, activation of AMPK activity in immunoprecipitates) worked out at 0.084 µM. Further, the “Activation of AMPK activity in immunoprecipitates” value in the assay on AMPK in U2OS cells (U2OS cells treated with inhibitor and MK-8722) turned out to be 2.5 fold. The “effect on activation of AMPK by LKB1” value in assay [1] is given as “little or no effect”. The “effect on LKB1 activity” value in assay [2] (all concentrations used) is listed as “no inhibition”.

On to `CNC(=O)c1ccccc1Oc1nc(Nc2cc(OC)c(OC)c(OC)c2)ncc1Br` [SBI-0206965], for which the “effect on AMPK activity in immunoprecipitates” value in the assay with AMPK in U2OS cells (U2OS cells, MK-8722 and increasing concentrations of inhibitor) is on record as “increased with a similar biphasic pattern”. Further, the “effect on activation of AMPK by LKB1” value in assay [1] is listed as “progressively promoted activation by LKB1”. Moreover, in assay [2] (read-out: IC50, inhibition of LKB1 activity), the IC50 (commonly the concentration that inhibits the measured activity by half) amounted to 6.1 µM.

These data come from publication PMC10778976, “BAY-3827 and SBI-0206965: Potent AMPK Inhibitors That Paradoxically Increase Thr172 Phosphorylation” (International Journal of Molecular Sciences, 2023).
